In patent US20220143060A1, “METHOD FOR TREATING INFECTIOUS DISEASES BY TARGETING NK CELL IMMUNE CHECKPOINT” (priority 2019, published 2022):

Assays:
[1] = tested on: HCV (J399EM); test: HCV copy number in serum/peripheral blood and liver tissue by qPCR in HCV-infected C/O-Tg mice; type: in vivo; settings: two weeks of treatment, vs control (FIG. 7B, 8C)
Procedure: This mouse model of HCV infection was first reproduced and confirmed. HCV (J399EM, 1 mL, TCID50=2×10^7) was used for tail vein infusion in C/O-Tg mice and wild-type littermate control mice. […] The above results are consistent with the observation in patients infected with HCV (Fahey S, Dempsey E, Long A. The role of chemokines in acute and chronic hepatitis C infection. Cellular and Molecular Immunology 11, 25 (2014)).
Since CD8+ T cells are generally thought to play an important role in viral infection and clearance, the expression profile of CD8+T immune checkpoint molecules during HCV infection was first tested. […] Based on this, it was tested whether targeting T cell immune checkpoint molecules can inhibit the chronic infection process.
In order to further investigate the therapeutic effect of NKG2A blockade on chronic HCV infection, mice were administered with NKG2A blocking antibodies two weeks after HCV infection. Up-regulation of NKG2A expression has been observed at this stage (FIG. 3C) and administration was lasted for two weeks (FIG. 6A).

[2] = tested on: liver NK cells; test: in vitro NK function assay: liver NK cells of treated mice co-cultured with target cells Yac-1, flow cytometry (CD107a, granzyme B, IFN-γ); type: in vivo, C/O-Tg mice; settings: two weeks of treatment with Qa-1 siRNA, vs control siRNA (FIG. 8D)
[3] = tested on: Qa-1; test: Qa-1 mRNA expression of different cell components in liver tissue after siRNA treatment; type: in vivo, C/O-Tg mice; settings: tail vein injection, two weeks of treatment, vs control siRNA (FIG. 8B)
From the text: On the other hand, it was investigated whether suppression of the expression of immune checkpoint molecules can promote the elimination of HCV.

“cholesterol-conjugated siRNA against Qa-1: cholesterol-conjugated siRNA against Qa-1, sequence GAAGAGGAGGAGACACAUA, synthesized by GenePharma (cholesterol-conjugated, position not given here)” was tested, and the “HCV replication (copy numbers of virus in serum and liver tissues)” value [1] was “inhibited HCV replication”, the “depletion process of NK cells (CD107a and IFN-γ)” value [2] was “reversed” and the “Qa-1 expression (mRNA) in liver cell components” value [3] was “selectively down-regulated Qa-1 in hepatocytes”.
